The target of data set [1] is T1, human TLR2 (Homo sapiens, UniProt O60603).
T1 construct: host or cells: HEK-Blue hTLR2 (HEK293-derived) cell line
The data set can be described thus: NF-kB activation in HEKBlue-hTLR2 cell line (SEAP reporter). The class given is cell-based. How it is done:
The potency of the compounds as activators of human and mouse TLR-2s was tested in an in vitro assay. The assay assesses NF-kB activation in the HEKBlue-mTLR-2 cell line. These cells have been stably transfected with mouse TLR-2 and express TLR-1 and TLR-6 endogenously at sufficient levels to allow for fully-functional TLR-1/2 and TLR-2/6 activation.
Toll-Like Receptor 2 (TLR2) stimulation is tested by assessing NF-kB activation in the HEKBlue-hTLR2 cell line. These cells have been stably transfected with human TLR2 and express TLR1 and TLR6 endogenously at a level sufficient to allow for fully-functional TLR1/2 and TLR2/6 activation. The activity of the test articles are tested on human TLR2 as potential agonists. The test articles are evaluated at seven concentrations and compared to control ligands. These steps are performed in triplicate.
Toll-Like Receptor 2 (TLR2) stimulation was tested by assessing N-kB activation in the HEK-Blue hTLR2 cell line. These cells have been stably transfected with human TLR2 and express TLR1 and TLR6 endogenously at a level sufficient to allow for fully-functional TLR1/2 and TLR2/6 activation. The activity of the test articles were tested on human TLR2 as potential agonists. The test articles were evaluated at seven concentrations and compared to control ligands (see list below). These steps were performed in triplicate.
The secreted embryonic alkaline phosphatase (SEAP) reporter is under the control of a promoter inducible by the transcription factor NF-κB. This reporter gene allows the monitoring of signaling through the TLR, based on the activation of NF-κB. In a 96-well plate (200 μL total volume) containing the appropriate cells (50,000-75,000 cells/well), 20 μL of the test article or the positive control ligand is added to the wells. The media added to the wells is designed for the detection of NF-κB induced SEAP expression. After a 20 hour incubation the optical density (OD) is read at 650 nm on a Molecular Devices SpectraMax 340PC absorbance detector.

Data set [2] deals with A/Udorn/307/72 (H3N2) influenza virus. The class given is in vivo, C57BL/6 mice. The note with it: n=5, day 5 (Example 4).
Data set [3] in a line: in vitro. The note with it: cynomolgus monkey, hepatocytes.
The nature of data set [4]: in vitro. The note with it: rat, hepatocytes.
Data set [5] can be described thus: in vitro. The note with it: rat, plasma.
The nature of data set [6]: in vitro. The note with it: human, hepatocytes.
For data set [7] the following is noted: human plasma, 37° C., 4 h time course.
A short description of data set [8]: in vitro. The note with it: dog, hepatocytes.
The conditions of data set [9]: dog plasma, 37° C., 4 h time course.
Data set [10] deals with T1, human TLR2. The data set can be described thus: NF-κB luciferase reporter assay in HEK293T cells transfected with human TLR2 plasmid. The note with it: dose range tested (12.2 pM to 3.125 pM), Example 9. The class given is cell-based. How it is done: Comparison of the abilities of various compounds to stimulate luciferase activity in an NF-κB cell-based reporter system was determined. Compounds tested include INNA-006 (or compound (1)); INNA-013 (or compound (4)); INNA-014 (or compound (3)); INNA-015 (or compound (2)); INNA-010; INNA-011 (or compound (5)); INNA-012 (or compound (6)); and INNA-009. HEK293T cells, transiently co-transfected with a human TLR2 plasmid and a luciferase-NF-κB plasmid reporter system, were exposed to various dilutions of each compound. Successful receptor binding and subsequent signal transduction events were determined by measuring the luminescence due to luciferase activity (results shown in FIG. 11—left to right columns for each concentration are in the following order INNA-006 (or compound (1)); INNA-013 (or compound (4)); INNA-014 (or compound (3)); INNA-015 (or compound (2)); INNA-010; INNA-011 (or compound (5)); INNA-012 (or compound (6)); and INNA-009.
Comparison of the in vitro TLR2 agonistic activity of Pam3Cys-Ser-PEG3000 and INNA-006: HEK293T cells, transiently co-transfected with a human TLR2 plasmid and a luciferase-NF-κB plasmid reporter system, were exposed to various dilutions of INNA-006 or Pam3Cys-Ser-PEG3000. […]

The nature of another data set: Solubility in water. Type of data set: physicochemical.

In general, EC50 refers to the concentration needed to bring the measured effect to its halfway point. A high value points to a need for much substance. The half-life is the time needed for the level to fall by half in the phase considered. A low value points to rapid decline. The term hepatocyte CLint denotes a measure of how fast metabolising enzymes remove a compound, apart from limits set by blood flow.

Where two headings read alike, the source gives them in different places. Residues, ends and D or L forms follow the SMILES beside them. *: point of attachment. X1 = CCCCCCCCCCCCCCCC(=O)OCC(C*)OC(=O)CCCCCCCCCCCCCCC

T1 sequence (O60603 21-784): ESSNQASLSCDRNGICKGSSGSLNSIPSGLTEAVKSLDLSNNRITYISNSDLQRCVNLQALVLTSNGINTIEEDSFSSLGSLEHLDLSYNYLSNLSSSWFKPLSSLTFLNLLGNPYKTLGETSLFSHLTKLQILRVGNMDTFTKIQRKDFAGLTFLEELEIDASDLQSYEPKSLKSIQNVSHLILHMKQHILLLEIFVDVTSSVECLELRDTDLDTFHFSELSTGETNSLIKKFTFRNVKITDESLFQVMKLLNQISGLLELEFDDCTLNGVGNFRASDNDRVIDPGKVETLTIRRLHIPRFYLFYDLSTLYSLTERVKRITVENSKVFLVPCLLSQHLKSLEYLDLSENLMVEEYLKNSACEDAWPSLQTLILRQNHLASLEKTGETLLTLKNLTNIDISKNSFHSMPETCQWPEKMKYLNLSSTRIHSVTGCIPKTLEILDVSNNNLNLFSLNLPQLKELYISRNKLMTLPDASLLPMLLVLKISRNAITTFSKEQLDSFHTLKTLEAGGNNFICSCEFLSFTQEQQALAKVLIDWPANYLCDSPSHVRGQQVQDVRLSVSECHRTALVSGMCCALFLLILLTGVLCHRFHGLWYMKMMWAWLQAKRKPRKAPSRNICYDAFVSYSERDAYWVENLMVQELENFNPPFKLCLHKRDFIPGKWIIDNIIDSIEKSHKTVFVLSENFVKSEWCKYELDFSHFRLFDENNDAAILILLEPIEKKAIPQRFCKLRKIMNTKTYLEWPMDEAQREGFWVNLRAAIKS
T1 sequence (Q9Y2C9 32-796 partner): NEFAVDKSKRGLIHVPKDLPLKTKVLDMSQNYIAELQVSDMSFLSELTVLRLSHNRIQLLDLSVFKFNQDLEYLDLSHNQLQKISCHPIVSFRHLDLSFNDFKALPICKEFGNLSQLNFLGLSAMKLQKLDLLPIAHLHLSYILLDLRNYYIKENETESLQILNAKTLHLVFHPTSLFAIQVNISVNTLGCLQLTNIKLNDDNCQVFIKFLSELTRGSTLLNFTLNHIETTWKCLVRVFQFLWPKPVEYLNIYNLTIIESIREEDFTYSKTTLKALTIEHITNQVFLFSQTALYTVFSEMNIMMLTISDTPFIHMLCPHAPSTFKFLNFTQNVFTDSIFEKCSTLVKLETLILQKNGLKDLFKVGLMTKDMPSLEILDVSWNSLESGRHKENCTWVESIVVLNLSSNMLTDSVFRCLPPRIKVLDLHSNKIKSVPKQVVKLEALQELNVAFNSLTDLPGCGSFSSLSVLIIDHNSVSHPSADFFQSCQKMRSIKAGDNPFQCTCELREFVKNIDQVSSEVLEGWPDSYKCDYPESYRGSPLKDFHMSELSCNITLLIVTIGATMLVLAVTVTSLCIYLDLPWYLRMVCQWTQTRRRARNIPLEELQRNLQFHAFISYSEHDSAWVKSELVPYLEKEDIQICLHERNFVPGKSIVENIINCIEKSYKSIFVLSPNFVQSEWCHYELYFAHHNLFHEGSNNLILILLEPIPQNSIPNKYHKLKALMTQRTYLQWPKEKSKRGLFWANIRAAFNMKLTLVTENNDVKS

Turning to `CCCCCCCCCCCCCCCC(=O)OCC(CSCC(N)C(=O)NC(CO)C(=O)NC(CCCCN)C(=O)NC(CCCCN)C(=O)NC(CCCCN)C(=O)NC(CCCCN)C(=O)O)OC(=O)CCCCCCCCCCCCCCC` (stereo not drawn) [INNA-005, Pam2Cys—Ser—Lys—Lys—Lys—Lys, reference compound] (H-C(X1)SKKKK-OH; configuration not given here), at human TLR2 [1] (Example 2), the “TLR2 activation, potency in words” value is recorded as “activated human TLR2”. This compound also showed an EC50 at human TLR2 [1] (agonist activity against Human TLR-2 in vitro) of 3.7 pM. Moreover, the “progression of influenza virus to the lungs (lung viral titre)” value in [2] (0.005 nmoles intranasal 1 day prior to 500 pfu Udorn challenge), in data set [2] (0.1 nmoles intranasal 1 day prior to 500 pfu Udorn challenge) and in data set [2] (5 nmoles intranasal 1 day prior to 500 pfu Udorn challenge) was “partial inhibition” throughout.

On to `CCCCCCCCCCCCCCCC(=O)OCC(CSC[C@H](N)C(=O)N[C@@H](CO)C(=O)NCCOCCOCCOCCOCCOCCOCCOCCOCCOCCOCCOCCOCCOCCOCCOCCOCCOCCOCCOCCOCCOCCOCCOCCOCCOCCOCCOCCOCCC(=O)NCC(N)=O)OC(=O)CCCCCCCCCCCCCCC` (stereo partly drawn) [INNA-011], for which the half-life at 0.5 μM is 173 min in the data set “in vitro [3]”, more than 375 min in “in vitro [4]”, 328 min in “in vitro [6]” and 284 min in the data set “in vitro [8]”. In addition, the hepatocyte CLint at 0.5 μM in the data set “in vitro [3]”, in “in vitro [4]”, in the data set “in vitro [6]” and in “in vitro [8]” was not above 2 µL/min/1e6 cells throughout. The compound also showed a half-life in the data set “in vitro [5]” of 354 min. Besides, the plasma half-life entry in [7] and in [9] was “could not be calculated due to insufficient degradation” in each case.

For the compound Pam3Cys-Ser-PEG3000, on human TLR2 [10], the “ability to signal NF-κB compared with INNA-006” value was “inferior to INNA-006”. Moreover, the solubility in water entry in “Solubility in water” is listed as “readily soluble in water”.
